{
  "source": "paper PMC5534107",
  "about": "“Sensitization of ASIC3 by proteinase-activated receptor 2 signaling contributes to acidosis-induced nociception” (Journal of Neuroinflammation, 2017)",
  "key": {"[1]": {"system": "rats", "test": "Nociceptive behavior (flinches) induced by intraplantar acetic acid in rats", "format": "in vivo, rat", "conditions": "capsazepine 100 μM, n = 10", "protocol": "Rats were placed in a 30 × 30 × 30 cm Plexiglas chamber and allowed to habituate for at least 30 min before nociceptive behavior experiments. A blind experiment was carried out. Separate groups of rats were coded and pretreated with 20 μl capsazepine (100 μM) together with vehicle and different dosages of PAR2-AP, FSLLRY-NH2, or APETx2 in the ipsilateral hind paw before injection of acetic acid. […] And nociceptive behavior (that is, number of flinches) was counted over a 5-min period starting immediately after the injection.\nWe finally ascertain whether PAR2-AP facilitates pain-related behaviors through interacting with ASIC3 in vivo. Acetic acid (0.6%) was injected into the right hind paws of rats and measured the number of flinches that the animals spent licking and/or lifting the injected paw. Intraplantar injection of acetic acid elicits an intense flinch/shaking response which mainly occurred during 0–5 min after injection of acetic acid. […] However, the low dose (1 μg) of PAR2-AP had no effect on the acidosis-induced nocifensive behaviors (Bonferroni’s post hoc test, P > 0.1, n = 10). In addition, the exacerbating effect of 10 μg PAR2-AP on acidosis-induced nocifensive behaviors was blocked by co-administration of 20 μg FSLLRY-NH2, a selective PAR2 antagonist (Bonferroni’s post hoc test, P < 0.01, compared with 10 μg PAR2-AP alone, n = 10; Fig. 6a)."}, "[2]": {"system": "heteromeric ASIC1b+3 channels expressed with PAR2 in CHO cells", "test": "Whole-cell patch clamp, heteromeric ASIC1b+3 channels expressed with PAR2 in CHO cells", "format": "cell-based, Chinese hamster", "conditions": "PAR2-AP 10^−5 M for 1 min; I pH 6.6; ASIC3:other subunit 1:3; n = 8", "protocol": "(§1) ASIC3, ASIC1a, ASIC1b, ASIC2b, and PAR2 complementary DNAs (cDNAs) were used for heterologous expression in CHO cells as described previously (Wang et al., 2013). In brief, CHO cells were cultured at 37 °C in a humidified atmosphere of 5% CO2 and […] and passaged twice a week. Transient transfection of CHO cells was performed using HilyMax liposome transfection reagent (Dojindo Laboratories). CHO cells were maintained in F-12 Nutrient Mixture (added 1.176 g of NaHCO3/L medium) supplemented with 10% fetal bovine serum and 1% gluta-MAXTM-1 (100×; Invitrogen). When ASIC3 and PAR2 cDNAs were co-transfected, the ratio was kept at 1:1. All plasmids used contained, in addition to the desired ASIC3 cDNA, the coding sequence for enhanced green fluorescent protein to aid identification of transfected cells. Electrophysiological measurements were performed 24–48 h after transfection.\n(§2) Whole-cell patch clamp and voltage clamp recordings were carried out at room temperature (22–25 °C) using a MultiClamp-700B amplifier and Digidata-1440A A/D converter (Axon Instruments, CA, USA). […]\n(§3) Drugs purchased from Sigma and used in the experiments include hydrochloric acid, 2-furoyl-LIGRLO-NH2 (a PAR2-activating peptide (PAR2-AP)), trypsin, FSLLRY-NH2, APETx2, and capsazepine. […] The application pipette tips were positioned ∼30 μm away from the recorded neurons. […]"}, "[3]": {"system": "heteromeric ASIC1a+3 channels expressed with PAR2 in CHO cells", "test": "Whole-cell patch clamp, heteromeric ASIC1a+3 channels expressed with PAR2 in CHO cells", "format": "cell-based, Chinese hamster", "conditions": "PAR2-AP 10^−5 M for 1 min; I pH 6.6; ASIC3:other subunit 1:3; n = 8", "protocol": "as §1, §2, §3"}},
  "data": [
    {"substance": "2-furoyl-LIGRLO-NH2 [PAR2-AP]", "values": [
      {"measurement": "effect on acidosis-induced nocifensive behaviors (number of flinches), low dose", "setting": "[1]; PAR2-AP 1 μg intraplantar, 5 min before acetic acid 0.6%, 20 μl, flinches over 5 min, P > 0.1", "value": "no effect"},
      {"measurement": "acetic acid-induced number of flinches vs acetic acid alone, medium dose", "setting": "[1]; PAR2-AP 3 μg intraplantar, P < 0.05", "value": "significantly greater"},
      {"measurement": "acetic acid-induced number of flinches vs acetic acid alone, high dose", "setting": "[1]; PAR2-AP 10 μg intraplantar, P < 0.01", "value": "significantly greater"},
      {"measurement": "increase of peak current of heteromeric ASIC1b+3 channels", "setting": "[2]", "value": "55.2 ± 5.9", "unit": "%"},
      {"measurement": "increase of peak current of heteromeric ASIC1a+3 channels", "setting": "[3]", "value": "51.6 ± 6.5", "unit": "%"}
    ]}
  ]
}
